{
  "source": "patent US20060172945A1",
  "about": "“Human neutrophil alpha-defensin 4 inhibition of HIV-1” (priority 2005, published 2006)",
  "system": "HIV-1 isolates IIIB (X4), BaL (R5), B703 (X4), NSI03 (R5) in PBMC",
  "assay": "Inhibition of HIV-1 replication in PBMC, HIV-1 p24 antigen-capture ELISA",
  "type": "cell-based",
  "details": "HIV-1 infected human PBMC in vitro, p24 at day 4; HNP4 compared with HNPs 1-3",
  "procedure": "Inhibition of HIV-1 in vitro by α-defensins 1-3 was first reported by Nakashima et al, 1993 [11], which has been confirmed by several recent reports.\nCells infected with the HIV-1 virus were added to duplicate series of wells containing varying concentrations of test defensin in 200 ul complete culture medium, and fed after 48 hours with fresh defensin of appropriate quantities. Medium alone was used as the control. The level of HIV-1 replication was measured at day 4 after infection by HIV-1 p24 antigen-capture ELISA. Percent infection was determined as a function of HIV p24 released into the medium in sample wells versus in control wells.",
  "note": "Entries after “also recorded” stand apart in the source; their conditions may differ. No end group written: not given here.",
  "data": [
    {"substance": "HNP4: Human neutrophil α-defensin 4, 33 amino acid residues; amino acid residues 64-96 of defensin 4 (VCSCRLVFCRRTELRVGNCLIGGVSFTYCCTRV; ends and bridges not checked; cysteine pairing not given here; UniProt P12838 64-96, looked up, fragment)", "values": [
      {"measurement": "Inhibition of HIV-1 (in words)", "value": "significantly more effective inhibitor than HNPs 1-3; also recorded: significantly and unexpectedly stronger"}
    ]}
  ]
}
